Assay results published in patent publication US12691143B2, “Method for treating cancer” (priority 2020, dated 2026).
Entries after “also recorded” stand apart in the source; their conditions may differ.

Legend:
[1] = tested on: KU19-19 xenografts (NER-proficient); assay: Xenograft study; type: in vivo, mice; settings: 1 mg/kg irofulven
Method: (§1) Six week old female athymic nude mice, NU/J (Stock No: 002019) were purchased from Jackson Laboratory (Bar Harbor, ME) and housed at the Dana-Farber Cancer Institute Animal Resources Facility. All animal experiments were performed in accordance with an IACUC-approved protocol. At 7-10 weeks of age, mice were anesthetized with isoflurane and subcutaneously injected on the left flank with 3 million KE1 or 1 million KU19-19 cells mixed 1:1 with Matrigel (BD Biosciences; Mississauga, ON) in PBS. Tumor size was measured with a digital caliper twice weekly and calculated using the formula: (L×W^2)×½. Drug treatments were administered when the average tumor volume reached a minimum of 100 mm^3. Irofulven was prepared in PBS to a stock concentration of 200 μg/ml and was delivered intraperitoneally (IP) twice weekly at doses of 250 μg/kg, 500 μg/kg or 1 mg/kg for a total of 5 injections or until the tumor reached a pre-specified protocol endpoint. Control mice were injected with PBS alone. At the end of the experiment, mice were sacrificed and tumors were excised for tumor weight measurements and imaging.
(§2) Six week old female athymic nude mice, NU/J (Stock No: 002019) were purchased from Jackson Laboratory (Bar Harbor, ME) and housed at the Dana-Farber Cancer Institute Animal Resources Facility. All animal experiments were performed in accordance with an IACUC-approved protocol. At 7-10 weeks of age, mice were anesthetized with isoflurane and subcutaneously injected on the left flank with 3 million KE1 or 1 million KU19-19 cells mixed 1:1 with Matrigel (BD Biosciences; Mississauga, ON) in PBS. Tumor size was measured with a digital caliper twice weekly and calculated using the formula:
(§3) [formula] Drug treatments were administered when the average tumor volume reached a minimum of 100 mm^3. Irofulven was prepared in PBS to a stock concentration of 200 μg/ml and was delivered intraperitoneally (IP) twice weekly at doses of 250 μg/kg, 500 μg/kg or 1 mg/kg for a total of 5 injections or until the tumor reached a pre-specified protocol endpoint. Control mice were injected with PBS alone. At the end of the experiment, mice were sacrificed and tumors were excised for tumor weight measurements and imaging.

[2] = tested on: KE1 xenografts (NER-deficient); assay: Xenograft study; type: in vivo, mice
Method: as §1, §2, §3

[3] = tested on: cisplatin-resistant MDA-MB-468 cell line; assay: In vitro drug sensitivity assay in cisplatin-resistant derivative; type: cell-based; settings: cisplatin-resistant derivative of NER-deficient MDA-MB-468
Method: Cells were seeded in either 96-well (5,000 cells/well) or 24-well (20,000 cells/well) plates. The following day, irofulven and cisplatin stock solutions were serially diluted in media and added to cells. After 48 to 72 hours, media was removed and CellTiter-Glo® reagent (Promega; Madison, WI) was added. Plates were scanned using a luminescence microplate reader (BioTek). Survival at each drug concentration was plotted as a percentage of survival in drug-free media with error bars representing the standard deviation of at least three experiments.
Platinum-based chemotherapy is a first-line treatment for numerous solid malignancies including bladder cancer, but platinum resistance frequently occurs and represents a challenging clinical problem. Although a variety of platinum resistance mechanisms have been characterized, restoration or upregulation of DNA repair is a common mechanism of resistance, particularly in HR-deficient breast and ovarian tumors^33. Mechanisms of platinum resistance in NER deficient tumors have not been characterized, and we wished to determine if acquired resistance to cisplatin would confer cross-resistance to irofulven through restoration of NER. To test this, we derived cisplatin resistance in the NER-deficient MDA-MB-468 cell line by gradual exposure to escalating doses of cisplatin (Methods).

[4] = tested on: MDA-MB-468 breast cancer cell line (NER deficient, ERCC4 silenced); assay: In vitro drug sensitivity assay, parental vs ERCC4-complemented line; type: cell-based; settings: NER-deficient parental MDA-MB-468 compared with ERCC4-complemented counterpart
From the text: (§4) Bladder cancer cell lines were purchased from ATCC. The KE1 bladder cancer cell line is a derivative of KU19-19 in which an ERCC2 T484 mutation has been introduced by CRISPR/Cas9 gene editing as previously described (6). The MDA-MB-468 breast cancer cell line and its ERCC4-complemented derivative have been previously described (35). Small interfering RNAs (siRNAs) targeting specific NER genes as well as a non-targeting siRNA (siNTC) were purchased from Integrated DNA Technologies Inc. (Coralville, IA, USA; see Table 9 for sequences). Cells were seeded in 6-well plates and grown to 50% confluency. A transfection mixture containing siRNA diluted to a final concentration of 30 nM in Opti-MEM media containing Lipofectamine 3000 (Life Technologies; Carlsbad, CA) was then added to cells. After 48 hours, cells were trypsinized and re-aliquoted to separate wells and transfected with 15 nM siRNA for 24 hours immediately prior to viability assays performed as described below. […]
(§5) Cells were seeded in either 96-well (5,000 cells/well) or 24-well (20,000 cells/well) plates. […] Plates were scanned using a luminescence microplate reader (BioTek). […]

KU19-19 cells = assay: Irofulven sensitivity after siRNA depletion of NER genes; type: cell-based
From the text: as §4, §5

CC1=C(CO)C2=C(C)C3(CC3)[C@@](C)(O)C(=O)C2=C1 [irofulven]
tumor response [1]: no response; also recorded: did not show response | tumor dose response ([2]; 250 μg/kg, 500 μg/kg or 1 mg/kg IP twice weekly): strong irofulven dose response | tumor response (tumor volume) ([2]; 1 mg/kg IP twice weekly, total of five doses): near complete tumor regression | xenograft weights ([2]; irofulven-treated vs untreated mice): significantly lower | irofulven sensitivity [3]: remains sensitive; also recorded: highly sensitive | irofulven sensitivity [4]: significantly more sensitive; also recorded: dramatically higher irofulven sensitivity | irofulven sensitivity after gene depletion (KU19-19 cells; siRNA depletion of GG-NER gene DDB2): minimal impact | irofulven sensitivity after gene depletion (KU19-19 cells; siRNA depletion of TC-NER gene ERCC6 or common NER gene ERCC3): significantly higher irofulven sensitivity; also recorded: sufficient to increase irofulven sensitivity
